Source: PubChem BioAssay (NCI)
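A five-concentration, 48-hour dose response in 96-well plates underlies each endpoint, interpolated linearly between surrounding concentrations. GI50 = concentration required for 50% inhibition of growth. TGI denotes the concentration required for complete inhibition of growth.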

Tests used:
Assay in all cases: inhibition of tumour cell growth, NCI panel, 48 h
[1] = system: 786-0 renal
[2] = system: A498 renal
[3] = system: A549 NSCLC
[4] = system: ACHN renal
[5] = system: BT-549 breast
[6] = system: CAKI-1 renal
[7] = system: CCRF-CEM leukemia
[8] = system: COLO 205 colon
[9] = system: DU-145 prostate
[10] = system: EKVX NSCLC
[11] = system: HCC-2998 colon
[12] = system: HCT-116 colon
[13] = system: HCT-15 colon
[14] = system: HL-60(TB) leukemia
[15] = system: HOP-62 NSCLC
[16] = system: HOP-92 NSCLC
[17] = system: HS 578T breast
[18] = system: HT29 colon
[19] = system: IGROV1 ovarian
[20] = system: K-562 leukemia
[21] = system: KM12 colon
[22] = system: LOX IMVI melanoma
[23] = system: M14 melanoma
[24] = system: MALME-3M melanoma
[25] = system: MCF7 breast
[26] = system: MDA-MB-231 breast
[27] = system: MDA-MB-435
[28] = system: MDA-N
[29] = system: MOLT-4 leukemia
[30] = system: NCI-H226 lung
[31] = system: NCI-H23 lung
[32] = system: NCI-H460 lung
[33] = system: NCI-H522 lung
[34] = system: NCI/ADR-RES ovarian
[35] = system: OVCAR-3 ovarian
[36] = system: OVCAR-4 ovarian
[37] = system: OVCAR-5 ovarian
[38] = system: OVCAR-8 ovarian
[39] = system: PC-3 prostate
[40] = system: RPMI-8226 leukemia
[41] = system: RXF 393 renal
[42] = system: SF-268 CNS
[43] = system: SF-295 CNS
[44] = system: SF-539 CNS
[45] = system: SK-MEL-2 melanoma
[46] = system: SK-MEL-28 melanoma
[47] = system: SK-MEL-5 melanoma
[48] = system: SK-OV-3 ovarian
[49] = system: SN12C renal
[50] = system: SNB-19 CNS
[51] = system: SNB-75 CNS
[52] = system: SR leukemia
[53] = system: SW-620 colon
[54] = system: T-47D breast
[55] = system: TK-10 renal
[56] = system: U251 CNS
[57] = system: UACC-257 melanoma
[58] = system: UACC-62 melanoma
[59] = system: UO-31 renal
[60] = system: DLD-1 colon
[61] = system: DMS 273 small cell lung
[62] = system: HOP-18 NSCLC
[63] = system: KM20L2 colon
[64] = system: LXFL 529 NSCLC
[65] = system: M19-MEL melanoma
[66] = system: SNB-78 CNS

`CC(N)(Cc1c[nH]c2ccccc12)C(=O)O` (stereo not given) showed a GI50 [1] greater than 2500 µM, a TGI [1] greater than 2500 µM and a GI50 [2] greater than 2500 µM. It also gave a TGI [2] greater than 2500 µM, a GI50 [3] greater than 2500 µM and a TGI [3] greater than 2500 µM. For the same compound, the GI50 [4] was greater than 2500 µM, the TGI [4] was greater than 2500 µM and the GI50 [5] was greater than 2500 µM. The TGI [5] was greater than 2500 µM, the GI50 [6] was greater than 2500 µM and the TGI [6] was greater than 2500 µM. The GI50 [7] was greater than 2500 µM, the TGI [7] was greater than 2500 µM and the GI50 [8] was greater than 2500 µM. It also gave a TGI [8] greater than 2500 µM, a GI50 [9] greater than 2500 µM and a TGI [9] greater than 2500 µM. It also gave a GI50 [10] greater than 2500 µM, a TGI [10] greater than 2500 µM and a GI50 [11] greater than 2500 µM. For the same compound, the TGI [11] was greater than 2500 µM, the GI50 [12] was greater than 2500 µM and the TGI [12] was greater than 2500 µM. The GI50 [13] was greater than 2500 µM, the TGI [13] was greater than 2500 µM and the GI50 [14] was greater than 2500 µM. For the same compound, the TGI [14] was greater than 2500 µM, the GI50 [15] was greater than 2500 µM and the TGI [15] was greater than 2500 µM. The GI50 [16] was 1800 µM, the TGI [16] was greater than 2500 µM and the GI50 [17] was 1090 µM. The TGI [17] was greater than 2500 µM, the GI50 [18] was greater than 2500 µM and the TGI [18] was greater than 2500 µM. For the same compound, the GI50 [19] was greater than 2500 µM, the TGI [19] was greater than 2500 µM and the GI50 [20] was greater than 2500 µM. The TGI [20] was greater than 2500 µM, the GI50 [21] was greater than 2500 µM and the TGI [21] was greater than 2500 µM. It also gave a GI50 [22] greater than 2500 µM, a TGI [22] greater than 2500 µM and a GI50 [23] greater than 2500 µM. The TGI [23] was greater than 2500 µM, the GI50 [24] was 522 µM and the TGI [24] was greater than 2500 µM. The GI50 [25] was greater than 2500 µM, the TGI [25] was greater than 2500 µM and the GI50 [26] was greater than 2500 µM. For the same compound, the TGI [26] was greater than 2500 µM, the GI50 [27] was greater than 2500 µM and the TGI [27] was greater than 2500 µM. It also gave a TGI [28] greater than 100 µM, a GI50 [29] greater than 2500 µM and a TGI [29] greater than 2500 µM. The GI50 [30] was greater than 2500 µM, the TGI [30] was greater than 2500 µM and the GI50 [31] was greater than 2500 µM. It also gave a TGI [31] greater than 2500 µM, a GI50 [32] greater than 2500 µM and a TGI [32] greater than 2500 µM. It also gave a GI50 [33] greater than 2500 µM, a TGI [33] greater than 2500 µM and a GI50 [34] greater than 2500 µM. For the same compound, the TGI [34] was greater than 2500 µM, the GI50 [35] was greater than 2500 µM and the TGI [35] was greater than 2500 µM. For the same compound, the GI50 [36] was greater than 2500 µM, the TGI [36] was greater than 2500 µM and the GI50 [37] was greater than 2500 µM. It also gave a TGI [37] greater than 2500 µM, a GI50 [38] greater than 2500 µM and a TGI [38] greater than 2500 µM. For the same compound, the GI50 [39] was greater than 2500 µM, the TGI [39] was greater than 2500 µM and the GI50 [40] was greater than 2500 µM. The TGI [40] was greater than 2500 µM, the GI50 [41] was greater than 2500 µM and the TGI [41] was greater than 2500 µM. It also gave a GI50 [42] greater than 2500 µM, a TGI [42] greater than 2500 µM and a GI50 [43] greater than 2500 µM. For the same compound, the TGI [43] was greater than 2500 µM, the GI50 [44] was greater than 2500 µM and the TGI [44] was greater than 2500 µM. For the same compound, the GI50 [45] was greater than 2500 µM, the TGI [45] was greater than 2500 µM and the GI50 [46] was greater than 2500 µM. It also gave a TGI [46] greater than 2500 µM, a GI50 [47] of 2350 µM and a TGI [47] greater than 2500 µM. For the same compound, the GI50 [48] was greater than 2500 µM, the TGI [48] was greater than 2500 µM and the GI50 [49] was greater than 2500 µM. It also gave a TGI [49] greater than 2500 µM, a GI50 [50] greater than 2500 µM and a TGI [50] greater than 2500 µM. For the same compound, the GI50 [51] was greater than 2500 µM, the TGI [51] was greater than 2500 µM and the GI50 [52] was greater than 2500 µM. It also gave a TGI [52] greater than 2500 µM, a GI50 [53] greater than 2500 µM and a TGI [53] greater than 2500 µM. The GI50 [54] was greater than 2500 µM, the TGI [54] was greater than 2500 µM and the GI50 [55] was greater than 2500 µM. It also gave a TGI [55] greater than 2500 µM, a GI50 [56] greater than 2500 µM and a TGI [56] greater than 2500 µM. It also gave a GI50 [57] greater than 2500 µM, a TGI [57] greater than 2500 µM and a GI50 [58] greater than 2500 µM. The TGI [58] was greater than 2500 µM, the GI50 [59] was greater than 2500 µM and the TGI [59] was greater than 2500 µM.

`Nc1ccc(-c2ccc(Nc3cc(S(=O)(=O)O)c(N)c4c3C(=O)c3ccccc3C4=O)cc2)c(S(=O)(=O)O)c1` showed a TGI [1] greater than 100 µM, a TGI [2] greater than 100 µM and a TGI [3] greater than 100 µM. For the same compound, the TGI [4] was greater than 100 µM, the TGI [5] was greater than 100 µM and the TGI [6] was greater than 100 µM. It also gave a TGI [7] greater than 100 µM, a TGI [8] greater than 100 µM and a TGI [9] greater than 100 µM. For the same compound, the TGI [10] was greater than 100 µM, the TGI [11] was greater than 100 µM and the TGI [12] was greater than 100 µM. For the same compound, the TGI [13] was greater than 100 µM, the TGI [14] was greater than 100 µM and the TGI [15] was greater than 100 µM. It also gave a TGI [16] greater than 100 µM, a TGI [17] greater than 100 µM and a TGI [18] greater than 100 µM. For the same compound, the TGI [19] was greater than 100 µM, the TGI [20] was greater than 100 µM and the TGI [21] was greater than 100 µM. For the same compound, the TGI [22] was greater than 100 µM, the TGI [23] was greater than 100 µM and the TGI [24] was greater than 100 µM. The TGI [25] was greater than 100 µM, the TGI [26] was greater than 100 µM and the TGI [27] was greater than 100 µM. The TGI [28] was greater than 100 µM, the TGI [29] was greater than 100 µM and the TGI [30] was greater than 100 µM. The TGI [31] was greater than 100 µM, the TGI [32] was greater than 100 µM and the TGI [33] was greater than 100 µM. For the same compound, the TGI [34] was greater than 100 µM, the TGI [35] was greater than 100 µM and the TGI [36] was greater than 100 µM. The TGI [37] was greater than 100 µM, the TGI [38] was greater than 100 µM and the TGI [39] was greater than 100 µM. The TGI [40] was greater than 100 µM, the TGI [41] was greater than 100 µM and the TGI [42] was greater than 100 µM. The TGI [43] was greater than 100 µM, the TGI [44] was greater than 100 µM and the TGI [45] was greater than 100 µM. It also gave a TGI [46] greater than 100 µM, a TGI [47] greater than 100 µM and a TGI [48] greater than 100 µM. It also gave a TGI [49] greater than 100 µM, a TGI [50] greater than 100 µM and a TGI [51] greater than 100 µM. For the same compound, the TGI [52] was greater than 100 µM, the TGI [53] was greater than 100 µM and the TGI [54] was greater than 100 µM. The TGI [55] was greater than 100 µM, the TGI [56] was greater than 100 µM and the TGI [57] was greater than 100 µM. For the same compound, the TGI [58] was greater than 100 µM and the TGI [59] was greater than 100 µM.

`CC1C(/C=C/c2ccoc2)ON2CCCC12` (stereo not given) showed a TGI [1] greater than 100 µM, a TGI [4] greater than 100 µM and a TGI [6] greater than 100 µM. For the same compound, the TGI [8] was greater than 100 µM, the TGI [60] was greater than 100 µM and the TGI [61] was greater than 100 µM. For the same compound, the TGI [10] was greater than 100 µM, the TGI [11] was greater than 100 µM and the TGI [14] was greater than 100 µM. The TGI [62] was greater than 100 µM, the TGI [16] was greater than 100 µM and the TGI [18] was greater than 100 µM. The TGI [63] was greater than 100 µM, the TGI [22] was greater than 100 µM and the TGI [64] was greater than 100 µM. It also gave a TGI [65] greater than 100 µM, a TGI [24] greater than 100 µM and a TGI [30] greater than 100 µM. The TGI [31] was greater than 100 µM, the TGI [32] was greater than 100 µM and the TGI [33] was greater than 100 µM. It also gave a TGI [36] greater than 100 µM, a TGI [37] greater than 100 µM and a TGI [38] greater than 100 µM. It also gave a TGI [41] greater than 100 µM, a TGI [42] greater than 100 µM and a TGI [43] greater than 100 µM. It also gave a TGI [44] greater than 100 µM, a TGI [45] greater than 100 µM and a TGI [46] greater than 100 µM. For the same compound, the TGI [49] was greater than 100 µM, the TGI [50] was greater than 100 µM and the TGI [51] was greater than 100 µM. The TGI [66] was greater than 100 µM, the TGI [53] was greater than 100 µM and the TGI [55] was greater than 100 µM. For the same compound, the TGI [56] was greater than 100 µM, the TGI [57] was greater than 100 µM and the TGI [59] was greater than 100 µM.
